Reference: patent US20060057104A1, “Methods for stimulating tlr irf3 pathways for inducing anti-microbial, anti-inflammatory and anticancer responses” (THE Regents of the University of California Office of the …, priority 2002, published 2006)

Test system: MHV68
Experiment: MHV68 viral replication assay in wild-type and IFNAR−/− BMMs (M9 western blot)
Assay type: cell-based, Murine gammaherpesvirus 68
Conditions: MOI 5, 48 h, co-treatment
Experimental: (B) For viral replication assays, BMMs were simultaneously stimulated with PAMPs (10, 1, or 0.1 ng/ml lipid A, or 1, 0.1, or 0.01 μg/ml poly(I:C)) and infected with MHV68 using a multiplicity of infection of five. Cell lysates were harvested at 48 h postinfection and subjected to Western blotting analysis using an Ab specific to the MHV68 protein M9. Actin levels were also assayed to ensure equal loading. The data represent two independent experiments.
A129 (IFNAR-1^−/−) (Muller, U., U. Steinhoff, L. F. L. Reis, S. Hemmi, J. Pavlovic, R. M. Zinkernagel, and M. Aguet. 1994. Functional role of type I and type II interferons in antiviral defense. Science 264:1918) and B6129SF2/J wild type control mice were obtained from B&K Universal Ltd. and Jackson Laboratories, respectively. C57/B6 mice were used for all experiments not involving the A129 mice (Jackson Laboratories). Specific TLR activation was achieved using F-583 (Rd mutant) E. coli lipid A for TLR4 (Sigma), CpG oligonucleotides for TLR9 (Invitrogen) and poly I:C for TLR3 (Pharmacia). […]
Using the MHV68 protein M9 as a readout for viral load, we show in FIG. 13B that the antiviral activity of macrophage cells infected with MHV68 was abolished in the absence of IFNAR despite co-treatment with either lipid A or poly I:C. […]

| Substance | antiviral activity against MHV68 in the absence of IFNAR |
| --- | --- |
| poly I:C | abolished |
| lipid A | abolished |
